The source of these data is patent US20240189284A1, “COMPOSITION FOR PROMOTING LIPOLYSIS” (SUNTORY HOLDINGS LIMITED, priority 2021, published 2024).

One test relates to lipolysis. Kind of test: Blood metabolome evaluation study on human (placebo-controlled, randomized, double-blind, parallel-group; CE-TOF-MS). It is filed as in vivo. The method, then: In order to evaluate the influence of supplements containing ergothioneine on the human blood metabolome, a placebo-controlled, randomized, double-blind, parallel-group study was conducted on subjects including male and female adults (46 subjects in a test food group; 46 subjects in a control food group; 92 subjects in total). In this study, one capsule containing 20 mg ergothioneine (test food) or one capsule not containing ergothioneine (control food) was fed per day for four weeks. The blood metabolome of each subject was measured for pre-testing before starting the study (before starting ingestion of the test food or control food). After ingestion of the test food or control food for four weeks, the blood metabolome of each subject was measured again (testing on week 4). The blood metabolome was measured by a capillary electrophoresis time-of-flight mass spectrometry (CE-TOF-MS) available from Human Metabolome Technologies, Inc. Two types of food for evaluation, which were indistinguishable in appearance, flavor, and the like, were used. • Test food: capsule containing a test substance (20 mg L-ergothioneine) • Control food: capsule containing no test substance Each type of food for evaluation contained raw materials such as dextrin, hydroxypropyl cellulose, carrageenan, potassium chloride, and titanium oxide, in addition to the test substance. The control food was produced using the same raw materials used in the test food, except that the test substance (L-ergothioneine) was not added. For each of lipid metabolism-related metabolites and lipids of various kinds for which significant changes were observed by the blood metabolome measurement, a ratio (test food group/control food group) was determined from the average of measurements (blood concentrations) of the test food group and the control food group at the time of testing on week 4. FIG. 1 is a graph showing blood metabolome measurements of the test food group and the control food group at the time of testing on week 4 in the form of ratios (test food group/control food group). […]

The conditions of test [1]: mice, oral administration, vs. mice not administered; cited from earlier work.
[2] abbreviates: L-ergothioneine ingested compared to no L-ergothioneine ingested.

For `C[N+](C)(C)[C@@H](Cc1c[nH]c(=S)[nH]1)C(=O)[O-]` [L-ergothioneine], in the test on lipolysis (setting [2]), the “blood free fatty acid (e.g., palmitoleic acid) concentration” value is “increased” and the blood glycerol concentration result is listed as “significantly increased”. In the test with lipolysis (human adults, 20 mg L-ergothioneine per day for four weeks, blood metabolome as a whole), the promotion of lipolysis result is reported as “action to promote lipolysis”. Further, in test [1], the peritesticular fat weight result was “lower” and the “triglyceride (neutral fat) level in plasma” value was “lower”.
